Experimental data published in patent EP2607478A1, “Phenanthroline treated MSC” (Universiteit Twente, priority 2011, dated 2013).

Test system: MSCs
Assay: Whole genome expression analysis (Illumina microarray) of treated MSCs
Type: cell-based, Human
Settings: DFO versus Bas
Procedure: MSCs were seeded in T25 flasks at 5000 cells/cm^2 and allowed to attach overnight in proliferation medium. […] After 48 hours, RNA was isolated as described above. From 500 ng of RNA, cRNA was synthesized using the Illumina TotalPrep RNA amplification Kit (Ambion), according to the manufacturer's protocol and the quality of RNA and cRNA was verified on a Bioanalyzer 2100 (Agilent). Microarrays were performed using Illumina HT-12 v4 expression Beadchips, according to the manufacturer's protocol. Briefly, 750 ng of cRNA was hybridized on the array overnight after which the array was washed and blocked. Then, by addition of streptavidin Cy-3 a fluorescent signal was developed. Arrays were scanned on an Illumina iScan reader and raw intensity values were background corrected in GenomeStudio (Illumina). Further data processing and statistical testing were performed with R and Bioconductor statistical software (www.bioconductor.org), using package lumi. Raw intensity values were transformed using variance stabilization and a quantile normalization was performed. A linear modelling approach with empirical Bayesian methods, as implemented in Limma package (54), was applied for differential expression analysis of the resulting probe-level expression values. A gene list, containing only those genes with an absolute 1.5-fold change between different treatments, was uploaded to Ingenuity Pathway Analysis (IPA) software and used for core analysis. Pathways or networks with a p-value of 0.05 were considered statistically significant.

## CC(=O)N(O)CCCCCNC(=O)CCC(=O)N(O)CCCCCNC(=O)CCC(=O)N(O)CCCCCN [DFO, reference compound]
ProbeID ILMN_1765990
  logFC(D142_ DFO - D142_BAS) KCNK2: -2,07
ProbeID ILMN_1767556
  logFC(D142_ DFO - D142_BAS) C10orf10: 3,15
ProbeID ILMN_1770085
  logFC(D142_ DFO - D142_BAS) BTG2: 2,57
ProbeID ILMN_1770228
  logFC(D142_ DFO - D142_BAS) KRT34: 3,81
ProbeID ILMN_1770290
  logFC(D142_ DFO - D142_BAS) CNN2: -2,29
ProbeID ILMN_1772612
  logFC(D142_ DFO - D142_BAS) ANGPTL2: -2,31
ProbeID ILMN_1772876
  logFC(D142_ DFO - D142_BAS) ZNF395: 2,75
ProbeID ILMN_1772910
  logFC(D142_ DFO - D142_BAS) GAS1: -3,12
ProbeID ILMN_1773337
  logFC(D142_ DFO - D142_BAS) DKK1: 2,79
ProbeID ILMN_1774602
  logFC(D142_ DFO - D142_BAS) FBLN2: -2,23
ProbeID ILMN_1775708
  logFC(D142_ DFO - D142_BAS) SLC2A3: 2,53
ProbeID ILMN_1777513
  logFC(D142_ DFO - D142_BAS) KCTD11: 2,12
ProbeID ILMN_1779258
  logFC(D142_ DFO - D142_BAS) LOC644774: 2,61
ProbeID ILMN_1784294
  logFC(D142_ DFO - D142_BAS) CPA4: 5,59
ProbeID ILMN_1784948
  logFC(D142_ DFO - D142_BAS) SPOCD1: -2,53
ProbeID ILMN_1785891
  logFC(D142_ DFO - D142_BAS) PRKD1: -2,05
ProbeID ILMN_1786065
  logFC(D142_ DFO - D142_BAS) UHRF1: -2,34
ProbeID ILMN_1787212
  logFC(D142_ DFO - D142_BAS) CDKN1A: 2,78
ProbeID ILMN_1787815
  logFC(D142_ DFO - D142_BAS) TRIB3: 3,16
ProbeID ILMN_1789507
  logFC(D142_ DFO - D142_BAS) COL11A1: -2,55
ProbeID ILMN_1789702
  logFC(D142_ DFO - D142_BAS) GBE1: 2,29
ProbeID ILMN_1790338
  logFC(D142_ DFO - D142_BAS) PRRX2: -2,49
ProbeID ILMN_1790529
  logFC(D142_ DFO - D142_BAS) LUM: -3,27
ProbeID ILMN_1791447
  logFC(D142_ DFO - D142_BAS) CXCL12: -2,57
ProbeID ILMN_1792356
  logFC(D142_ DFO - D142_BAS) DPYSL4: 3,05
ProbeID ILMN_1792455
  logFC(D142_ DFO - D142_BAS) TMEM158: 2,58
ProbeID ILMN_1794017
  logFC(D142_ DFO - D142_BAS) SERTAD1: 2,25
ProbeID ILMN_1794863
  logFC(D142_ DFO - D142_BAS) CAMK2N1: 2,65
ProbeID ILMN_1795697
  logFC(D142_ DFO - D142_BAS) PTP4A2: 2,22
ProbeID ILMN_1796417
  logFC(D142_ DFO - D142_BAS) ASNS: 2,93
ProbeID ILMN_1797728
  logFC(D142_ DFO - D142_BAS) HMGCS1: -2,09
ProbeID ILMN_1798081
  logFC(D142_ DFO - D142_BAS) PTPRF: 2,28
ProbeID ILMN_1798249
  logFC(D142_ DFO - D142_BAS) AK3L1: 2,66
ProbeID ILMN_1801077
  logFC(D142_ DFO - D142_BAS) PLIN2: 2,94
ProbeID ILMN_1803647
  logFC(D142_ DFO - D142_BAS) FAM162A: 2,50
ProbeID ILMN_1803825
  logFC(D142_ DFO - D142_BAS) CXCL12: -2,19
ProbeID ILMN_1803882
  logFC(D142_ DFO - D142_BAS) VEGFA: 3,15
ProbeID ILMN_1808657
  logFC(D142_ DFO - D142_BAS) FMO3: -2,46
ProbeID ILMN_1809813
  logFC(D142_ DFO - D142_BAS) PGF: 2,55
ProbeID ILMN_1809931
  logFC(D142_ DFO - D142_BAS) NDRG1: 3,57
ProbeID ILMN_1810172
  logFC(D142_ DFO - D142_BAS) SFRP4: -2,03
ProbeID ILMN_1810725
  logFC(D142_ DFO - D142_BAS) FAM129A: 2,88
ProbeID ILMN_1810836
  logFC(D142_ DFO - D142_BAS) PDE5A: -2,08
ProbeID ILMN_1811909
  logFC(D142_ DFO - D142_BAS) LOC402221: -2,22
ProbeID ILMN_1812091
  logFC(D142_ DFO - D142_BAS) FAM20A: -2,11
ProbeID ILMN_1812968
  logFC(D142_ DFO - D142_BAS) SOX18: -2,09
ProbeID ILMN_1814998
  logFC(D142_ DFO - D142_BAS) FKSG30: -2,25
ProbeID ILMN_1843198 (no gene name printed)
  logFC(D142_ DFO - D142_BAS): 3,25
ProbeID ILMN_1890614 (no gene name printed)
  logFC(D142_ DFO - D142_BAS): 3,41
ProbeID ILMN_1892403
  logFC(D142_ DFO - D142_BAS) SNORD13: 2,51
ProbeID ILMN_2052208
  logFC(D142_ DFO - D142_BAS) GADD45A: 2,60
ProbeID ILMN_2053415
  logFC(D142_ DFO - D142_BAS) LDLR: -2,03
ProbeID ILMN_2054297
  logFC(D142_ DFO - D142_BAS) PTGS2: 2,25
ProbeID ILMN_2062701
  logFC(D142_ DFO - D142_BAS) GAS1: -2,07
ProbeID ILMN_2098446
  logFC(D142_ DFO - D142_BAS) PMAIP1: 2,11
ProbeID ILMN_2103547
  logFC(D142_ DFO - D142_BAS) GOLGA8B: 2,12
ProbeID ILMN_2108735
  logFC(D142_ DFO - D142_BAS) EEF1A2: 2,72
ProbeID ILMN_2117508
  logFC(D142_ DFO - D142_BAS) CTHRC1: -2,46
ProbeID ILMN_2121408
  logFC(D142_ DFO - D142_BAS) HBEGF: 2,13
ProbeID ILMN_2132982
  logFC(D142_ DFO - D142_BAS) IGFBP5: 2,53
ProbeID ILMN_2138765
  logFC(D142_ DFO - D142_BAS) PLIN2: 2,74
ProbeID ILMN_2144426
  logFC(D142_ DFO - D142_BAS) HIST2H2AA3: 2,07
ProbeID ILMN_2148785
  logFC(D142_ DFO - D142_BAS) GBP1: -2,41
ProbeID ILMN_2150851
  logFC(D142_ DFO - D142_BAS) SERPINB2: 3,06
ProbeID ILMN_2150856
  logFC(D142_ DFO - D142_BAS) SERPINB2: 3,04
ProbeID ILMN_2150894
  logFC(D142_ DFO - D142_BAS) ALDH1B1: -2,55
ProbeID ILMN_2167805
  logFC(D142_ DFO - D142_BAS) LUM: -2,01
ProbeID ILMN_2186061
  logFC(D142_ DFO - D142_BAS) PFKFB3: 4,03
ProbeID ILMN_2186137
  logFC(D142_ DFO - D142_BAS) RRAD: 3,12
ProbeID ILMN_2188862
  logFC(D142_ DFO - D142_BAS) GDF15: 6,31
ProbeID ILMN_2200836
  logFC(D142_ DFO - D142_BAS) HSPB7: -2,12
ProbeID ILMN_2214197
  logFC(D142_ DFO - D142_BAS) TP53INP1: 2,62
ProbeID ILMN_2216852
  logFC(D142_ DFO - D142_BAS) PGK1: 2,75
ProbeID ILMN_2222008
  logFC(D142_ DFO - D142_BAS) KIFC1: -2,05
ProbeID ILMN_2234697
  logFC(D142_ DFO - D142_BAS) BEX1: -3,45
ProbeID ILMN_2234956
  logFC(D142_ DFO - D142_BAS) LEPR: -2,33
ProbeID ILMN_2301083
  logFC(D142_ DFO - D142_BAS) UBE2C: -2,01
ProbeID ILMN_2307903
  logFC(D142_ DFO - D142_BAS) VCAM1: -3,16
ProbeID ILMN_2322375
  logFC(D142_ DFO - D142_BAS) MAFF: 2,07
ProbeID ILMN_2337058
  logFC(D142_ DFO - D142_BAS) PORCN: 2,69
ProbeID ILMN_2338038
  logFC(D142_ DFO - D142_BAS) AK3L1: 2,28
ProbeID ILMN_2344283
  logFC(D142_ DFO - D142_BAS) FMO3: -2,30
ProbeID ILMN_2347068
  logFC(D142_ DFO - D142_BAS) MKNK2: 2,45
ProbeID ILMN_2349459
  logFC(D142_ DFO - D142_BAS) BIRC5: -2,14
ProbeID ILMN_2361862
  logFC(D142_ DFO - D142_BAS) VLDLR: 3,17
ProbeID ILMN_2374865
  logFC(D142_ DFO - D142_BAS) ATF3: 3,23
ProbeID ILMN_2375879
  logFC(D142_ DFO - D142_BAS) VEGFA: 3,40
ProbeID ILMN_2376953
  logFC(D142_ DFO - D142_BAS) KCNK2: -2,07
ProbeID ILMN_2386444
  logFC(D142_ DFO - D142_BAS) ANGPTL4: 2,64
ProbeID ILMN_2387385
  logFC(D142_ DFO - D142_BAS) IGFBP1: 2,45
ProbeID ILMN_2405521
  logFC(D142_ DFO - D142_BAS) MTHFD2: 2,84
ProbeID ILMN_2413158
  logFC(D142_ DFO - D142_BAS) PODXL: 2,92
ProbeID ILMN_3237270
  logFC(D142_ DFO - D142_BAS) LOC100133609: 2,49
ProbeID ILMN_3237448
  logFC(D142_ DFO - D142_BAS) BEND5: 2,61
ProbeID ILMN_3242900
  logFC(D142_ DFO - D142_BAS) HIST2H2AA4: 2,11
ProbeID ILMN_3248701
  logFC(D142_ DFO - D142_BAS) LOC644350: 2,60
ProbeID ILMN_3248758
  logFC(D142_ DFO - D142_BAS) LOC728934: 2,47
ProbeID ILMN_3283772
  logFC(D142_ DFO - D142_BAS) LOC644237: 2,17
ProbeID ILMN_3305273
  logFC(D142_ DFO - D142_BAS) LOC729779: 3,12
